Measurements reported in patent publication US20050276794A1, “Composition and method for improving pancreatic islet cell survival” (priority 2004, published 2005).

Assays:
[1] = test system: porcine islets; test: Islet morphology under anoxia (photomicrographs); type: cell-based; settings: 100 μM alone; up to 30 hrs anoxia; versus untreated islets
Method: Porcine islets were hand picked and placed in wells (one islet/well in triplicates) in a 96 micro plate. The islets were pre-incubated either in regular porcine culture media (M199) or in media supplemented with alpha-tocopherol 100 μM, gamma-tocopherol 100 μM or the combination of alpha-+gamma-tocopherol, 50 μM each prior to exposure to anoxia. Islets were then incubated for additional 30 hrs either under normoxia (control—95% Air, 5%CO2) or anoxia (95%N2, 5%CO2) in the presence or absence of the indicated vitamin E concentration. At four different time points (0 h, 12 h, 24 h and 30 h), islets were removed from the incubator, examined microscopically and photomicrographs were obtained. Panel A: Porcine islets cultured with regular porcine culture media (M199) under anoxia. As indicated by the photomicrographs, anoxia caused a significant change in to the islet morphology. […]
Porcine islets were isolated and then cultured for 48 hours according to standard protocols Islets were then cultured for an additional 18-24 hours in media in the presence or absence of alpha-tocopherol and gamma-tocopherol (50 μM each). […] Islet quality was assessed at time intervals ranging from 6 to 24 hours from the initiation of exposure to anoxia with Oxygen Consumption Rate (OCR), ATP, Caspase 3/7 activity measurements (all normalized to DNA), microphotography and transplantation into diabetic nude mice. […]

[2] = test system: isolated islet cells; type: cell-based
Method: Single islets were hand-picked from a Petri dish under microscopy and transferred to wells in a 96-well microculture plate. Micronutrients comprising alpha-tocopherol (50 μM), gamma-tocopherol (50 μM), and succinate (5 μM) were added to wells in various combinations, with regular media (no added micronutrients) used as control. Islet cell survival was indicated by maintenance of a more compact cell mass, with disruption of the cell mass indicating islet cell death detected by microscopic means. […] Samples are shown in duplicate (a—middle panel, and b—bottom panel), with the corresponding control in the top panel.

[3] = isolated islet cells in culture medium

Row | SMILES | islet morphology after exposure to anoxia [1] | concentration at which increased benefit is noted [2, 3] | concentration at which protective effect is exhibited [2, 3] | protective benefit for preventing cell death in isolated islet cells (comparison) ([2]; compared with alpha-tocopherol or either tocopherol alone)
1 | Cc1c(C)c2c(c(C)c1O)CC[C@@](C)(CCC[C@H](C)CCC[C@H](C)CCCC(C)C)O2 [alpha-tocopherol] | more normal morphology | at least 50 μM | at least 10 μM | 
2 | Cc1c(O)cc2c(c1C)O[C@](C)(CCC[C@H](C)CCC[C@H](C)CCCC(C)C)CC2 [gamma-tocopherol] | more normal morphology |  |  | more protective benefit
